Active and inactive are the calls of the source. No cut-off for these calls is given here.
Legend:
[1] = target: Serine/threonine-protein kinase PRP4 homolog (Homo sapiens) (UniProt Q13523); conditions: Compound concentration 1000.0 nM
[2] = target: MAP kinase-activated protein kinase 2 (Homo sapiens) (UniProt P49137); conditions: Compound concentration 1000.0 nM
[3] = target: Tyrosine-protein kinase ITK/TSK (Homo sapiens) (UniProt Q08881); conditions: Compound concentration 1000.0 nM
[4] = test system: Tyrosine-protein kinase ABL1 (Homo sapiens), P00519 [Q252H]; conditions: Compound concentration 1000.0 nM
[5] = test system: Phosphatidylinositol 4,5-bisphosphate 3-kinase catalytic subunit alpha isoform (Homo sapiens), P42336 [E542K]; conditions: Compound concentration 1000.0 nM
[6] = target: Calcium/calmodulin-dependent protein kinase type 1 (Homo sapiens) (UniProt Q14012); conditions: Compound concentration 1000.0 nM
[7] = target: D(1A) dopamine receptor (Homo sapiens) (UniProt P21728); conditions: Compound concentration 10.0 uM
[8] = target: Phosphatidylinositol 4,5-bisphosphate 3-kinase catalytic subunit gamma isoform (Homo sapiens) (UniProt P48736); conditions: Compound concentration 1000.0 nM
[9] = target: Phosphatidylinositol 3-kinase catalytic subunit type 3 (Homo sapiens) (UniProt Q8NEB9); conditions: Compound concentration 1000.0 nM
[10] = target: Serine/threonine-protein kinase B-raf (Homo sapiens) (UniProt P15056); conditions: Compound concentration 1000.0 nM
[11] = target: Serine/threonine-protein kinase 3 (Homo sapiens) (UniProt Q13188); conditions: Compound concentration 1000.0 nM
[12] = target: Vascular endothelial growth factor receptor 1 (Homo sapiens) (UniProt P17948); conditions: Compound concentration 1000.0 nM
[13] = target: Interleukin-1 receptor-associated kinase 1 (Homo sapiens) (UniProt P51617); conditions: Compound concentration 1000.0 nM
[14] = target: Serine/threonine-protein kinase D2 (Homo sapiens) (UniProt Q9BZL6); conditions: Compound concentration 1000.0 nM
[15] = target: Ribosomal protein S6 kinase alpha-6 (Homo sapiens) (UniProt Q9UK32); conditions: Compound concentration 1000.0 nM
[16] = target: Myosin light chain kinase (Homo sapiens) (UniProt Q32MK0); conditions: Compound concentration 1000.0 nM
[17] = target: Serine/threonine-protein kinase pim-2 (Homo sapiens) (UniProt Q9P1W9); conditions: Compound concentration 1000.0 nM
[18] = target: cGMP-dependent protein kinase 1 (Homo sapiens) (UniProt Q13976); conditions: Compound concentration 1000.0 nM
[19] = target: Mitogen-activated protein kinase 10 (Homo sapiens) (UniProt P53779); conditions: Compound concentration 1000.0 nM
[20] = target: Receptor tyrosine-protein kinase erbB-2 (Homo sapiens) (UniProt P04626); conditions: Compound concentration 1000.0 nM
[21] = target: Dual specificity tyrosine-phosphorylation-regulated kinase 1A (Homo sapiens) (UniProt Q13627); conditions: Compound concentration 1000.0 nM
[22] = target: Tyrosine-protein kinase ABL1 (Homo sapiens) (UniProt P00519); conditions: Compound concentration 1000.0 nM
[23] = test system: Receptor-type tyrosine-protein kinase FLT3 (Homo sapiens), P36888 [K663Q]; conditions: Compound concentration 1000.0 nM
[24] = target: Methionine aminopeptidase 2 (Homo sapiens, UniProt P50579); assay: Biochemical activity-MetAP2 using Mn
[25] = target: Tyrosine-protein kinase ABL1 (Homo sapiens) (UniProt P00519); conditions: Compound concentration 1000.0 nM; remark: listed apart in the source
[26] = target: MAP/microtubule affinity-regulating kinase 4 (Homo sapiens) (UniProt Q96L34); conditions: Compound concentration 1000.0 nM
[27] = target: Tyrosine-protein kinase SYK (Homo sapiens) (UniProt P43405); conditions: Compound concentration 1000.0 nM
[28] = target: Histamine H1 receptor (Homo sapiens) (UniProt P35367); conditions: Compound concentration 10.0 uM
[29] = target: Phosphatidylinositol 4-phosphate 3-kinase C2 domain-containing subunit beta (Homo sapiens) (UniProt O00750); conditions: Compound concentration 1000.0 nM
[30] = target: Serine/threonine-protein kinase TAO1 (Homo sapiens) (UniProt Q7L7X3); conditions: Compound concentration 1000.0 nM
[31] = target: Ribosomal protein S6 kinase alpha-5 (Homo sapiens) (UniProt O75582); conditions: Compound concentration 1000.0 nM
[32] = target: Ephrin type-B receptor 1 (Homo sapiens) (UniProt P54762); conditions: Compound concentration 1000.0 nM
[33] = target: Dual specificity testis-specific protein kinase 1 (Homo sapiens) (UniProt Q15569); conditions: Compound concentration 1000.0 nM
[34] = target: Phosphatidylinositol 5-phosphate 4-kinase type-2 beta (Homo sapiens) (UniProt P78356); conditions: Compound concentration 1000.0 nM
[35] = target: ALK tyrosine kinase receptor (Homo sapiens) (UniProt Q9UM73); conditions: Compound concentration 1000.0 nM
[36] = target: Tyrosine-protein kinase Fer (Homo sapiens) (UniProt P16591); conditions: Compound concentration 1000.0 nM
[37] = target: Tyrosine-protein kinase TXK (Homo sapiens) (UniProt P42681); conditions: Compound concentration 1000.0 nM
[38] = test system: Hepatocyte growth factor receptor (Homo sapiens), P08581 [M1250T]; conditions: Compound concentration 1000.0 nM
[39] = test system: Hepatocyte growth factor receptor (Homo sapiens), P08581 [Y1235D]; conditions: Compound concentration 1000.0 nM
[40] = target: Serine/threonine-protein kinase ULK2 (Homo sapiens) (UniProt Q8IYT8); conditions: Compound concentration 1000.0 nM
[41] = target: Cyclin-dependent kinase 11B (Homo sapiens) (UniProt P21127); conditions: Compound concentration 1000.0 nM
[42] = target: BDNF/NT-3 growth factors receptor (Homo sapiens) (UniProt Q16620); conditions: Compound concentration 1000.0 nM
[43] = target: Interleukin-1 receptor-associated kinase 4 (Homo sapiens) (UniProt Q9NWZ3); conditions: Compound concentration 1000.0 nM
[44] = target: Cyclin-dependent kinase 2 homolog (Plasmodium falciparum (isolate 3D7)) (UniProt P61075); conditions: Compound concentration 1000.0 nM
[45] = test system: Leucine-rich repeat serine/threonine-protein kinase 2 (Homo sapiens), Q5S007 [G2019S]; conditions: Compound concentration 1000.0 nM

Sequence of Serine/threonine-protein kinase D2 (Homo sapiens) (Q9BZL6 whole entry): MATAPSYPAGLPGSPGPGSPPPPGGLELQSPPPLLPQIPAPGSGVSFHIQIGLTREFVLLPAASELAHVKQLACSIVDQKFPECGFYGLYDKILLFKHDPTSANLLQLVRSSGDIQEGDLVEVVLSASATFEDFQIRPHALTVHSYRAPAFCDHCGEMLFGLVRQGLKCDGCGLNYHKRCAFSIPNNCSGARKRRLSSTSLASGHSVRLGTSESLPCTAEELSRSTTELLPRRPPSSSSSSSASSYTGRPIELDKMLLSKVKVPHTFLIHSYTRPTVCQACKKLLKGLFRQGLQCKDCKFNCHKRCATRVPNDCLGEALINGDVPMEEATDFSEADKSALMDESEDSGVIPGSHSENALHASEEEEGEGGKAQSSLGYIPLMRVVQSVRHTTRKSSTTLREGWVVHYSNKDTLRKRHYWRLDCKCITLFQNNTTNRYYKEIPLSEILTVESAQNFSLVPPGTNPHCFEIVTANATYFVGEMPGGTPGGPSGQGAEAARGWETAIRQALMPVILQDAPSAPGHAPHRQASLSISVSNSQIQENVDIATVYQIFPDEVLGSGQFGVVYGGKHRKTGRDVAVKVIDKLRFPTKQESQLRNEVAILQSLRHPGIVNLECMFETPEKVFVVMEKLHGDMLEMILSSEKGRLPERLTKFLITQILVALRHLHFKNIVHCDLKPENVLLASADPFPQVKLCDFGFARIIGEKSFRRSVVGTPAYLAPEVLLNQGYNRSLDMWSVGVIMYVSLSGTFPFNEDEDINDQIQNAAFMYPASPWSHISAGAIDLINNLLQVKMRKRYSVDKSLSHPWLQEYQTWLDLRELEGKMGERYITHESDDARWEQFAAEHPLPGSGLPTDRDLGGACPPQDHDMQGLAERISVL
Sequence of ALK tyrosine kinase receptor (Homo sapiens) (Q9UM73 19-1620 limits assumed): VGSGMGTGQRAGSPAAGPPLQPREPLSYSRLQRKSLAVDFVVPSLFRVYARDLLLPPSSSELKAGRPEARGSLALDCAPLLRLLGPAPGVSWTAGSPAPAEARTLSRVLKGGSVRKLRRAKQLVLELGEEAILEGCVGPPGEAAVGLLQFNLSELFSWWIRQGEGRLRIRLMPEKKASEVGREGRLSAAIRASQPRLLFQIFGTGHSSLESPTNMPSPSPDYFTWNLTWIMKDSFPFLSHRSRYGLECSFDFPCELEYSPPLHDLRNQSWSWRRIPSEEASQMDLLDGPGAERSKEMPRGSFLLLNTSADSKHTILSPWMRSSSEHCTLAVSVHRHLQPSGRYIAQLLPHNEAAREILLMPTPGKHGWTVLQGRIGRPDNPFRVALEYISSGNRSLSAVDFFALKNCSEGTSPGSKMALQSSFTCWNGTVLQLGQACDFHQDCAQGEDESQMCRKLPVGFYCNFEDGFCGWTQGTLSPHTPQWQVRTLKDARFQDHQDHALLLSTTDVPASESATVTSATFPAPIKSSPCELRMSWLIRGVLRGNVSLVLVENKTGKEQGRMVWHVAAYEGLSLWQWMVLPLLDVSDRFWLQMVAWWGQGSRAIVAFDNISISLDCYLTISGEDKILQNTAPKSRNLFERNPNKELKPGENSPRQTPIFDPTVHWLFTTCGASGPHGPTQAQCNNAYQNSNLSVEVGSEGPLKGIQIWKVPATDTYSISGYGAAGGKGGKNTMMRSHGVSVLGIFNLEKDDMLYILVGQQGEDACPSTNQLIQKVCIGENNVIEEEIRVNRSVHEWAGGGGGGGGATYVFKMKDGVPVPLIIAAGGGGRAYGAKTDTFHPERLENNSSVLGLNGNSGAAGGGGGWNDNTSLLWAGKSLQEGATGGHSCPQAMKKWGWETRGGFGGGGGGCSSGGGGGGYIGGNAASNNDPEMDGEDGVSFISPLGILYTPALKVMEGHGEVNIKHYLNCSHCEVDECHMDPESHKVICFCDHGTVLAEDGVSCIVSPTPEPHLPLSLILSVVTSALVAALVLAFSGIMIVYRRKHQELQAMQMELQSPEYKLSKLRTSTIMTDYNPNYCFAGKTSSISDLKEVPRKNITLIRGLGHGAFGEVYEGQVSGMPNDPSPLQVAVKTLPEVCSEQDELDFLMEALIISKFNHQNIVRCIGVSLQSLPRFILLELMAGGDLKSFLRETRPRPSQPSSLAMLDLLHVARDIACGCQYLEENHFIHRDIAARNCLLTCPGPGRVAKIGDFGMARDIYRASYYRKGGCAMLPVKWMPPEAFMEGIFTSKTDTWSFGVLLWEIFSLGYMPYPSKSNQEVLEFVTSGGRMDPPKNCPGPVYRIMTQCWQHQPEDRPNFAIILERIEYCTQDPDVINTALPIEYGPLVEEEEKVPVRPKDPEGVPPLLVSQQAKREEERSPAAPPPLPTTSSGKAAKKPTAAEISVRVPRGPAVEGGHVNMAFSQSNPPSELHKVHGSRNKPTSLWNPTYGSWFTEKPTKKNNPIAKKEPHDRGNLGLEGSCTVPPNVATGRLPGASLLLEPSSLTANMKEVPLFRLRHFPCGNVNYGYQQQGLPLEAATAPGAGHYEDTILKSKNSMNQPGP
Sequence of Serine/threonine-protein kinase pim-2 (Homo sapiens) (Q9P1W9 whole entry, looked up): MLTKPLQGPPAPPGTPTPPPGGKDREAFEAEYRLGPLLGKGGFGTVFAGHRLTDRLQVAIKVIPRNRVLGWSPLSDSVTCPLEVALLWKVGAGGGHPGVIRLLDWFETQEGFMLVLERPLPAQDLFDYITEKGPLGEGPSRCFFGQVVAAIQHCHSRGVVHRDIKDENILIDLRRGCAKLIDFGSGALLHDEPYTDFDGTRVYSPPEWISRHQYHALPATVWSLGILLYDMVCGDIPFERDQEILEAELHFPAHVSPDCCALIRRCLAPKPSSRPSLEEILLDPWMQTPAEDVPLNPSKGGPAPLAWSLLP
Sequence of Dual specificity testis-specific protein kinase 1 (Homo sapiens) (Q15569 whole entry, looked up): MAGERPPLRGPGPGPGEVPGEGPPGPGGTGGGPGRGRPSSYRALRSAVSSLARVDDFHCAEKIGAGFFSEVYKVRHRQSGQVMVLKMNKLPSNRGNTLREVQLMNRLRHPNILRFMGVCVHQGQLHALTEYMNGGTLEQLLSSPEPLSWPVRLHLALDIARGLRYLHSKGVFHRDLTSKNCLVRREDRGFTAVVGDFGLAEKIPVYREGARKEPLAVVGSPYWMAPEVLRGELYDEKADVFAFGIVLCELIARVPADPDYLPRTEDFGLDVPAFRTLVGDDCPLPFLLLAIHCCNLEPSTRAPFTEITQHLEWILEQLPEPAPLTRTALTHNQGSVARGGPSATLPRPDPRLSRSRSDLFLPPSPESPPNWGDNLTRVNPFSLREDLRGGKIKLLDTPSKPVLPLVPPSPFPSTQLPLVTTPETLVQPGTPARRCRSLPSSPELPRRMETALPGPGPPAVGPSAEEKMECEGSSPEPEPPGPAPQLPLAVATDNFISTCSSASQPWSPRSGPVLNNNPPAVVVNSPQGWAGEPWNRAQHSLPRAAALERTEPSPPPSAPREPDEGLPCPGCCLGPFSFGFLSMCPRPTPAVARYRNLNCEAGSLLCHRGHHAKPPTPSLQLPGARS
Sequence of Serine/threonine-protein kinase B-raf (Homo sapiens) (P15056 whole entry): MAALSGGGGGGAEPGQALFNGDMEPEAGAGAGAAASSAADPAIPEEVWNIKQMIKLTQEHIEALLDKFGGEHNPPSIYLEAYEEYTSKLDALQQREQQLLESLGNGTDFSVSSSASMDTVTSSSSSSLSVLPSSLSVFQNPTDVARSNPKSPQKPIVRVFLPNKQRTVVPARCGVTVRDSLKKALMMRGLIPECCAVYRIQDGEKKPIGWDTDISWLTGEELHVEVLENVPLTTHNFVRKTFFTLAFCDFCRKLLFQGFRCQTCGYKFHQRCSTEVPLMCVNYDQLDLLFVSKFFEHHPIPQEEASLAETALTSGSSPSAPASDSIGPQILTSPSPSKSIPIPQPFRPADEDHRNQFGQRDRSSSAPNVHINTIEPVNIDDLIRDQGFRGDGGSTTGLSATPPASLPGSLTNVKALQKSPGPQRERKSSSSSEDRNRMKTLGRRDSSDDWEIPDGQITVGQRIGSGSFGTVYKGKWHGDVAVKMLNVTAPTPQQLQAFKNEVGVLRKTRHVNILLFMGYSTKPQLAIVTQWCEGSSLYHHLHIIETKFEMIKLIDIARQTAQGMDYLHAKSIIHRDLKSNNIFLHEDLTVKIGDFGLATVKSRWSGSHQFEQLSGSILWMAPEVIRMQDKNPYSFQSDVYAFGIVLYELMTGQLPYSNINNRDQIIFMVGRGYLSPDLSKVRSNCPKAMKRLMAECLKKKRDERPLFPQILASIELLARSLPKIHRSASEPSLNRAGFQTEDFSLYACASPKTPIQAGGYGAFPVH
Sequence of Ribosomal protein S6 kinase alpha-6 (Homo sapiens) (Q9UK32 whole entry): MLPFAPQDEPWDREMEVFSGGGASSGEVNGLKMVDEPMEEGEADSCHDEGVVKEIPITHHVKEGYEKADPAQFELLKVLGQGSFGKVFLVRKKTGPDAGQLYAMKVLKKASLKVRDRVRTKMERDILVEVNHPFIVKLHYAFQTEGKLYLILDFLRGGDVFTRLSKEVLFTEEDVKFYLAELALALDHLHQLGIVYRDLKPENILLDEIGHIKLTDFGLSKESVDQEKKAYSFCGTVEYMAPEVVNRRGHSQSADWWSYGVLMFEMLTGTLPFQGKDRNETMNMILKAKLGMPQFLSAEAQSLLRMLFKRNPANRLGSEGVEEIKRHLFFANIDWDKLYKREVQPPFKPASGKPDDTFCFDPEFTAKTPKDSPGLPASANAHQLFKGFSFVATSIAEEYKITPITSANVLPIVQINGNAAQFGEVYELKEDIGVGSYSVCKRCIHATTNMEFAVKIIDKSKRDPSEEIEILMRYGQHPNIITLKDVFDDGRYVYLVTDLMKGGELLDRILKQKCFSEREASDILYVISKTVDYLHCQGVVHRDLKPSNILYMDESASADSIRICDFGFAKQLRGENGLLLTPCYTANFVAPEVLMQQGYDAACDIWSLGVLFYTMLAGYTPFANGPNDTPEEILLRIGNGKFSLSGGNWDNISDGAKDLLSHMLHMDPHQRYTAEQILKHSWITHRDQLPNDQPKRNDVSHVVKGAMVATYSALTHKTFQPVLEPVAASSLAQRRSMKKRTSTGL

`Cc1nc(N2CC[C@@H](O)C2)ncc1-c1cc(C(F)(F)F)cc2[nH]ncc12` [TP-004] was tested, and the residual activity [1] was 100%, the residual activity [2] was 95% and the residual activity [3] was 64%. The residual activity [4] was 79%, the residual activity [5] was 52% and the residual activity [6] was 100%. It also gave an inhibition [7] of 11.1%, a residual activity [8] of 82% and a residual activity [9] of 63%. For the same compound, the residual activity [10] was 73%, the residual activity [11] was 80% and the residual activity [12] was 100%. For the same compound, the residual activity [13] was 100%, the residual activity [14] was 79% and the residual activity [15] was 100%. For the same compound, the residual activity [16] was 98%, the residual activity [17] was 89% and the residual activity [18] was 77%. It also gave a residual activity [19] of 72%, a residual activity [20] of 87% and a residual activity [21] of 73%. The residual activity [22] was 61%, the residual activity [23] was 89% and the IC50 [24] was 7 nM (active). The residual activity [25] was 83%, the residual activity [26] was 80% and the residual activity [27] was 100%. The inhibition [28] was 0.239%, the residual activity [29] was 100% and the residual activity [30] was 91%. It also gave a residual activity [31] of 100%, a residual activity [32] of 73% and a residual activity [33] of 94%. The residual activity [34] was 100%, the residual activity [35] was 81% and the residual activity [36] was 97%. The residual activity [37] was 100%, the residual activity [38] was 92% and the residual activity [39] was 81%. For the same compound, the residual activity [40] was 66%, the residual activity [41] was 94% and the residual activity [42] was 53%. For the same compound, the residual activity [43] was 94%, the residual activity [44] was 61% and the residual activity [45] was 67%.

Source: ChEMBL document CHEMBL4507303, “Data for DCP probe TP-004” (2021)
